In US4681966A, “Intermediate for thiol based collagenase inhibitors” (G. D. Searle & Co., priority 1986, dated 1987) one finds IC50 data, which are given here for 1 molecule.

The target in this assay is T1, Human Rheumatoid Synovial collagenase (Homo sapiens, UniProt P03956).
T1 construct: Synovial collagenase; from tissue; host or cells: human rheumatoid synovium (from the enzyme's printed name)
T1 sequence (P03956 100-469): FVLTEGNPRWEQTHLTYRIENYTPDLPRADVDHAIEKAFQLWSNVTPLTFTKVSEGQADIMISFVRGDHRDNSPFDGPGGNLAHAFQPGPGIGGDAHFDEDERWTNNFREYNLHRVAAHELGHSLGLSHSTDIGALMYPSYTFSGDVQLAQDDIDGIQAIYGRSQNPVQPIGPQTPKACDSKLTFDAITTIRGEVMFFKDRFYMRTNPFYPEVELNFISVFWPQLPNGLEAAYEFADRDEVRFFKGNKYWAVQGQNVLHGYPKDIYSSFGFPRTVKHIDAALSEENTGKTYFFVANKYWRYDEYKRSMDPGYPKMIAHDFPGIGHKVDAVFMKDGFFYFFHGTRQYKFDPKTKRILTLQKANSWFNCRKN
In words: Inhibition of collagenase: acetyl 14C collagen degradation (Cawston and Barrett), concentration effecting 50% inhibition. The class given is biochemical. As to conditions: Table 3; comparison R1 = H vs CH3; 37° C., 16 hours, pH 7.6; read-out: IC50 against human rheumatoid sinovial [collagenase]. As for the experimental part: This was determined following the procedure of Cawston and Barrett, Anal. Biochem,. 99, 340-345 (1979) whereby the 1 mM of the inhibitor being tested or dilutions thereof are incubated at 37° C. for 16 hours with native collagen and collagenase (buffered with Tris HCl--CaCl2; pH 7.6). The collagen is acetyl ^14 C collagen. The samples are centrifuged to sediment undigested collagen and an aliquot of the radiactive supernatant removed for assay on a scintillation counter as a measure of hydrolysis. The collagenase activity in the presence of 1 mM inhibitor, or a dilution thereof, is compared to activity in a control devoid of inhibitor and the results reported as that inhibitor concentration effecting 50% inhibition of the collagenase.
This was determined following the procedure of Cawston and Barrett, Anal. Biochem., 99, 340-345 (1979) whereby the 1 mM of the inhibitor being tested or dilutions thereof are incubated at 37° C. for 16 hours with native collagen and collagenase (buffered with Tris HCl--CaCl2; pH 7.6). The collagen is acetyl […] collagen. The samples are centrifuged to sediment undigested collagen and an aliquot of the radioactive supernatant removed for assay on a scintillation counter as a measure of hydrolysis. […]

The term IC50 denotes the point on the concentration scale where inhibition reaches its midpoint. In the case of `CNC(=O)[C@@H](NC(=O)C(CC(C)C)C(C)S)[C@@H](C)OCc1ccccc1` (stereo partly drawn) [Example 6 A, N-[2-(1-Mercaptoethyl)-4-methylpentanoyl]-O-benzyl-L-threonine N-Methylamide], the IC50 was determined as 450 nM.
